Reference: US5773421A, “Antifungal fusacandins” (Abbott Laboratories, priority 1995, dated 1998)
≈ marks a conversion by molar mass, not a printed value. Where two headings read alike, the source gives them in different places.

Legend:
Experiment in all cases: MIC by agar dilution method
Type in all cases: cell-based
[1] = system: Candida albicans 579a; conditions: read-out: MIC II
Procedure: (§1) Minimal inhibitory concentrations (MICs) were determined by an agar dilution method. The test compounds were serially diluted in MeOH and 0.2 mL portions were mixed with 20 mL of molten, cooled Sabouraud dextrose agar (Difco). Yeast cell inoculum was prepared by growing cultures on Sabouraud dextrose agar for 18 hours at 32° C. and suspending the cells in phosphate buffered saline. Filamentous fungi were grown under the same conditions for 4 days to obtain spores. The inoculum level for all cultures was adjusted to 10^4 cells using a Petroff-Hauser cell counter. The glutarimide antifungal compounds cycloheximide or amphotericin B were used as a control. Inoculated test plates were incubated at 32° C. and examined after 20 hours.

[2] = system: Candida albicans ATCC 10231
Procedure: as §1

[3] = system: Candida albicans ATCC 38247
Procedure: as §1

[4] = system: Candida albicans ATCC 62376
Procedure: as §1

[5] = system: Candida albicans CCH 442; conditions: CCH442; Table 6c, 3rd value column (head printed II); III Candida albicans CCH 442; agar dilution; read-out: MIC II
Procedure: as §1

[6] = Table 6c, II Candida albicans 579a, agar dilution
[7] = ATCC10231, Table 6c, I Candida albicans ATCC 10231, agar dilution, read-out: MIC I
[8] = ATCC38247, Table 6c, IV Candida albicans ATCC 38247, agar dilution, read-out: MIC IV
[9] = ATCC62376, Table 6c, V Candida albicans ATCC 62376, agar dilution, read-out: MIC V
[10] = Candida albicans, ATCC10231, read-out: MIC I
[11] = Candida albicans, ATCC38247, read-out: MIC IV
[12] = Candida albicans, ATCC62376, read-out: MIC V

Row | MIC [1, 6] | MIC [2, 7] | MIC [3, 8] | MIC [4, 9] | MIC [5] | SMILES | MIC ([1]; Candida albicans, 579A) | MIC [2, 10] | MIC [3, 11] | MIC [4, 12]
1 | 0.78 µg/mL (≈ 0.691 µM) | 1.56 µg/mL (≈ 1.38 µM) | 3.12 µg/mL (≈ 2.76 µM) | 0.78 µg/mL (≈ 0.691 µM) | 0.78 µg/mL (≈ 0.691 µM) | CCCCC/C=C/C=C/[C@@H](O)C/C=C/C=C/C(=O)O[C@@H]1[C@@H](O)[C@H](c2c(O)cc(O)cc2CO)O[C@H](CO)[C@H]1O[C@@H]1O[C@H](COC(=O)c2ccc(-c3ccc(-c4ccccc4)cc3)cc2)[C@H](O)[C@H](O)[C@H]1O[C@@H]1O[C@H](CO)[C@H](O)[C@H](O)[C@H]1O [Example 33] | – | – | – | –
2 | 3.12 µg/mL (≈ 2.88 µM) | 12.5 µg/mL (≈ 11.5 µM) | 6.25 µg/mL (≈ 5.77 µM) | 6.25 µg/mL (≈ 5.77 µM) | 6.25 µg/mL (≈ 5.77 µM) | C=CCOc1ccc2cc(C(=O)OC[C@H]3O[C@@H](O[C@H]4[C@H](OC(=O)/C=C/C=C/C[C@H](O)/C=C/C=C/CCCCC)[C@@H](O)[C@H](c5c(O)cc(O)cc5CO)O[C@@H]4CO)[C@H](O[C@@H]4O[C@H](CO)[C@H](O)[C@H](O)[C@H]4O)[C@@H](O)[C@H]3O)ccc2c1 [Example 23] | – | – | – | –
3 | 0.78 µg/mL (≈ 0.702 µM) | 1.56 µg/mL (≈ 1.4 µM) | 0.78 µg/mL (≈ 0.702 µM) | 0.78 µg/mL (≈ 0.702 µM) | 0.78 µg/mL (≈ 0.702 µM) | CCCCC/C=C/C=C/[C@@H](O)C/C=C/C=C/C(=O)O[C@@H]1[C@@H](O)[C@H](c2c(O)cc(O)cc2CO)O[C@H](CO)[C@H]1O[C@@H]1O[C@H](COC(=O)c2ccc(-c3ccc(OC(C)C)cc3)cc2)[C@H](O)[C@H](O)[C@H]1O[C@@H]1O[C@H](CO)[C@H](O)[C@H](O)[C@H]1O [Example 43] | – | – | – | –
4 | 0.78 µg/mL (≈ 0.762 µM) | 1.56 µg/mL (≈ 1.52 µM) | 1.56 µg/mL (≈ 1.52 µM) | 3.12 µg/mL (≈ 3.05 µM) | 1.56 µg/mL (≈ 1.52 µM) | CCCCC/C=C/C=C/C(=O)OC[C@H]1O[C@@H](O[C@H]2[C@H](OC(=O)/C=C/C=C/C[C@H](O)/C=C/C=C/CCCCC)[C@@H](O)[C@H](c3c(O)cc(O)cc3CO)O[C@@H]2CO)[C@H](O[C@@H]2O[C@H](CO)[C@H](O)[C@H](O)[C@H]2O)[C@@H](O)[C@H]1O [Example 11] | – | – | – | –
5 | 3.12 µg/mL (≈ 2.8 µM) | 6.25 µg/mL (≈ 5.6 µM) | 3.12 µg/mL (≈ 2.8 µM) | 6.25 µg/mL (≈ 5.6 µM) | 3.12 µg/mL (≈ 2.8 µM) | CCCCC/C=C/C=C/[C@@H](O)C/C=C/C=C/C(=O)O[C@@H]1[C@@H](O)[C@H](c2c(O)cc(O)cc2CO)O[C@H](CO)[C@H]1O[C@@H]1O[C@H](COC(=O)/C=C/c2cc(C(C)(C)C)cc(C(C)(C)C)c2)[C@H](O)[C@H](O)[C@H]1O[C@@H]1O[C@H](CO)[C@H](O)[C@H](O)[C@H]1O [Example 17] | – | – | – | –
6 | 50 µg/mL (≈ 53 µM) | 50 µg/mL (≈ 53 µM) | 25 µg/mL (≈ 26.5 µM) | 50 µg/mL (≈ 53 µM) | 25 µg/mL (≈ 26.5 µM) | CCCCC/C=C/C=C/[C@@H](O)C/C=C/C=C/C(=O)O[C@@H]1[C@@H](O)[C@H](c2c(O)cc(O)cc2CO)O[C@H](CO)[C@H]1O[C@@H]1O[C@H](COC(=O)CCC)[C@H](O)[C@H](O)[C@H]1O[C@@H]1O[C@H](CO)[C@H](O)[C@H](O)[C@H]1O [Example 12] | – | – | – | –
7 | 0.78 µg/mL (≈ 0.711 µM) | 1.56 µg/mL (≈ 1.42 µM) | 1.56 µg/mL (≈ 1.42 µM) | 1.56 µg/mL (≈ 1.42 µM) | 1.56 µg/mL (≈ 1.42 µM) | CCCCC/C=C/C=C/[C@@H](O)C/C=C/C=C/C(=O)O[C@@H]1[C@@H](O)[C@H](c2c(O)cc(O)cc2CO)O[C@H](CO)[C@H]1O[C@@H]1O[C@H](COC(=O)c2ccc(-c3ccc4c(c3)OCO4)cc2)[C@H](O)[C@H](O)[C@H]1O[C@@H]1O[C@H](CO)[C@H](O)[C@H](O)[C@H]1O [Example 36] | – | – | – | –
8 | 25 µg/mL (≈ 22.1 µM) | 25 µg/mL (≈ 22.1 µM) | 50 µg/mL (≈ 44.1 µM) | 25 µg/mL (≈ 22.1 µM) | 25 µg/mL (≈ 22.1 µM) | CCCCC/C=C/C=C/[C@@H](O)C/C=C/C=C/C(=O)O[C@@H]1[C@@H](O)[C@H](c2c(O)cc(O)cc2CO)O[C@H](CO)[C@H]1O[C@@H]1O[C@H](COC(=O)c2ccc3cc(OCc4ccccc4)ccc3c2)[C@H](O)[C@H](O)[C@H]1O[C@@H]1O[C@H](CO)[C@H](O)[C@H](O)[C@H]1O [Example 24] | – | – | – | –

Row | SMILES | MIC [1, 6] | MIC [2, 7] | MIC [3, 8] | MIC [4, 9] | MIC [5] | MIC ([1]; Candida albicans, 579A) | MIC [2, 10] | MIC [3, 11] | MIC [4, 12]
9 | CCCCC/C=C/C=C/[C@@H](O)C/C=C/C=C/C(=O)O[C@@H]1[C@@H](O)[C@H](c2c(O)cc(O)cc2CO)O[C@H](CO)[C@H]1O[C@@H]1O[C@H](COC(=O)c2cc3ccccc3c3ccccc23)[C@H](O)[C@H](O)[C@H]1O[C@@H]1O[C@H](CO)[C@H](O)[C@H](O)[C@H]1O [Example 27] | – | – | – | – | 3.12 µg/mL (≈ 2.9 µM) | 3.12 µg/mL (≈ 2.9 µM) | 3.12 µg/mL (≈ 2.9 µM) | 6.25 µg/mL (≈ 5.8 µM) | 3.12 µg/mL (≈ 2.9 µM)
10 | CCCCC/C=C/C=C/[C@@H](O)C/C=C/C=C/C(=O)O[C@@H]1[C@@H](O)[C@H](c2c(O)cc(O)cc2CO)O[C@H](CO)[C@H]1O[C@@H]1O[C@H](COC(=O)c2ccc3c(ccc4ccccc43)c2)[C@H](O)[C@H](O)[C@H]1O[C@@H]1O[C@H](CO)[C@H](O)[C@H](O)[C@H]1O [Example 25] | – | – | – | – | 0.78 µg/mL (≈ 0.724 µM) | 0.78 µg/mL (≈ 0.724 µM) | 1.56 µg/mL (≈ 1.45 µM) | 1.56 µg/mL (≈ 1.45 µM) | 1.56 µg/mL (≈ 1.45 µM)
